Results from patent US20090047243A1, “COMBINATIONS FOR THE TREATMENT OF B-CELL PROLIFERATIVE DISORDERS” (priority 2007, published 2009).
Where a name gives a salt, the structure may show the parent alone.

Test system: patient CLL cells
Assay: Apoptosis assay (Hoechst 33342, flow cytometry, 48 h)
Assay type: cell-based, human
Design: unit not given here
Conditions: CGS-21680 0 μM
Source text: Blood samples were obtained in heparinized tubes with IRB-approved consent from flow cytometry-confirmed B-CLL patients that were either untreated or for whom at least 1 month had elapsed since chemotherapy. Patients with active infections or other serious medical conditions were not included in this study. Patients with white blood cell counts of less than 15,000/μl by automated analysis were excluded from this study. Whole blood was layered on Ficoll-Hystopaque (Sigma), and peripheral blood mononuclear cells (PBMC) isolated after centrification. […] One million cells were stained with anti-CD5-PE and anti-CD19-PE-Cy5 (Becton Dickenson, Franklin Lakes N.J.). The percentage of B-CLL cells was defined as the percentage of cells doubly expressing CD5 and CDl9, as determined by flow cytometry. […] Compound master plates were diluted 1:50 into complete media to create working compound dilutions. Compound crosses were then created by diluting two working dilution plates 1:10 into each plate of cells. […] Hoechst 33342 (Molecular Probes, Eugene Oreg.) at a final concentration of 0.25 μg/1 mL was added to each well, and the cells incubated at 37° C. for an additional ten minutes before being placed on ice until analysis. Plates were then analyzed on a LSR-II flow cytometer (Becton Dickenson, Franklin Lakes, N.J.) equipped with the High Throughput Sampling (HTS) option in high throughput mode. […] The apoptotic fraction was calculated using FlowJo software (Tree Star Inc., Ashland, Oreg.) after excluding debris by a FSC/SSC gate and subsequently gating for cells that accumulate the Hoechst dye.

COc1cc2c(cc1OC)-c1cc(=Nc3c(C)cc(C)cc3C)n(C)c(=O)n1CC2 [Trequinsin hydrochloride, 2,3,6,7-tetrahydro-9,10-dimethoxy-3-methyl-2-((2,4,6-trimethylphenyl)imino)-4H-pyrimido(6,1-a)isoquinolin-4-one]
Induction of apoptosis (Trequinsin 0.22 μM): 8.9 | Induction of apoptosis (Trequinsin 2 μM): 19 | Induction of apoptosis (Trequinsin […]): 9.9
